Among the data in patent US12421228B2 (Mirati Therapeutics, Inc., priority 2019, dated 2025) are IC50 values, retold here.

Molecules are shown by their SMILES. A value given as a limit tells only on which side of the number the result lay.

Assay [1] concerns the target purified human, His-tagged PRC2 complex (Homo sapiens (Human), UniProt O75530). The assay is described as follows: Hot Spot HMT assay, inhibition of PRC2 enzymatic activity. The note with it: 10 nM PRC2 complex, 0.05 mg/ml core histone H3, 1 μM 3H-SAM, 1 hr at 30° C.; read-out: IC50, Inhibition of PRC2-mediated Enzymatic Activity. The class given is biochemical. How it is done: Ten-point dose-response curves for compounds of the present invention were determined using a Hot Spot HMT assay (Reaction Biology Corp; see Horiuchi et al., Assay Drug Dev Technol. (2013) 4: 227-236 doi: 10.1089/adt.2012.480). The assay uses purified human, His-tagged PRC2 complex, including N-terminal His-tagged EZH2 enzyme, N-terminal Flag-tagged embryonic ectoderm development protein (EED), N-terminal His-tagged suppressor of zeste 12 (SUZ12), N-terminal His-tagged AEBP2, and N-terminal His-tagged RbAp48. In this assay, the transfer of the tritiated methyl group from radiolabeled S-adenosyl methionine (SAM) to purified core histone protein by EZH2 is quantitated after filtration to determine the activity of the core PRC2 complex in the presence and absence of compound.
Briefly, compounds of the present invention were solubilized in DMSO and a series of 10, three-fold serial dilutions were made for each compound in 15% DMSO. The initial starting concentration for the serial dilutions of each compound was 1.0 μM. Control samples lacking compound, EZH2 enzyme or various reaction components also were prepared and processed in parallel with compound test samples. SAH (S-(5-adenosyl)-L-homocysteine) was used as a positive control for assay validation.
An aliquot of each serial dilution of test compound was added to deep 384 well plate using Acoustic Technology instrument (Echo 550, LabCyte) containing reaction buffer (50 mM Tris-HCl (pH 8)), 0.01% Brij35, 1 mM EDTA, 1 mM DTT, 1 mM PMSF and 1% DMSO), 10 nM purified PRC2 complex and 0.05 mg/ml core histone H3 in a 5 μl volume. The reaction was mixed gently and then pre-incubated for 20 min at 30° C. The enzymatic reaction was initiated by adding 1 μM S-Adenosyl-L-[methyl-^3H]methionine and incubated for 1 hr at 30° C. After 1 hr, the reaction product was detected using a filter binding method and the amount of tritiated H3 core histone was quantitated using a scintillation counter. The IC50 value for each compound was determined from each 10-point dose-response curve using GraphPad Prism software and the results for compounds of present invention, including compounds of Formula (I) and Formula (II) are shown in Table 6. Key: A=<100 nM; B=>100 nM−<250 nM; and C=>250 nM.

Assay [2] has as its system Karpas 422 cells (EZH2 Y641N). The assay is described as follows: Karpas 422 cell viability (Cell Titre Glo). The class given is cell-based. To be noted: Homo sapiens, CTG viability, Day 4, Day 7 or Day 11 (time point not given), read-out: IC50 (nM), Inhibiting Proliferation of Cells Expressing an Activating Mutant Form of EZH2. How it is done: Karpas 422 cell line is a human B cell non-Hodgkin's lymphoma cell line established from a patient having DLBCL. This EZH2 heterozygotic cell line expresses a mutant form of EZH2 enzyme (Y641N) that increases histone H3 methylation and this mutation has been implicated in the tumorgenesis of lymphomas, such as DLBCL.
Karpas 422 cells (PHE cat no., 06101702) were cultured in RPMI medium supplemented with 20% fetal bovine serum and 1% penicillin/1% streptomycin and plated at a density of 1000 cells/90 μl/well in 96 well white assay plates. A dose response curve for compounds of the present invention was determined by adding a 10 μl aliquot of stock solutions of varying concentrations of compounds to the same medium in each well, over a concentration range of 10 μM using 3-fold dilutions to a final concentration of 1.5 nM. The plates were incubated at 37° C. for predetermined time periods, Day 4, Day 7, or Day 11, and the viability of the cells was measured using a CTG assay kit (Cell Titre Glo; Promega cat. no G7573) on Day 4 and Day 7 in accordance with the manufacturer's instructions.
For the viability assay for the Day 11 plates, the plates were subjected to centrifugation at 1100 rpm for five minutes on Day 7 and the supernatant was removed by aspiration. The cells were resuspended in 90 μl aliquot of the appropriate growth medium lacking the compound followed by addition of 10 μl of a 10× stock of the same compound at the same concentration. The viability of the Day 11 cells was measured using the CTG assay kit described above in accordance with the manufacturer's instructions. The IC50 values for each compound at each predetermined time point were calculated using Graph pad PRISM software and the results are shown in Table 8. A=≤250 nM; B=[…]−≤500 nM; C=>500 nM and N.D.=not determined.

The test system of assay [3] is PRC2-mediated histone H3 methylation in Pfeiffer cells (EZH2 A677G). The assay is described as follows: Tri-Methyl Histone H3 (Lys 27) sandwich ELISA in Pfeiffer cells. The assay is classed as cell-based. To be noted: Homo sapiens, 96 hours incubation, H3K27me3 ELISA, read-out: IC50 (nM), Inhibition of EZH2-mediated Histone H3 Trimethylation. The source says:
The Pfeiffer cell line was established from a […] from a patient having metastatic diffuse large B-cell lymphoma (DLBCL). This cell line expresses a mutant form of the EZH2 enzyme (A677G) that results in enhanced EZH2 activity leading to increased methylation of histone H3 Lys27. Increased trimethylation of histone H3 Lys27 is believed to be implicated in tumorgenesis and poor clinical prognosis in lymphomas (McCabe et al., (2012) Nature 492:108-112).
Inhibition of PRC2-mediated histone H3 methylation by compounds of Formula (I) was measured by ELISA using a Tri-Methyl Histone H3 (Lys 27) Sandwich ELISA Kit (Cell Signaling Tech #7866C) in accordance with the manufacturer's instructions. Briefly, Pfeiffer cells were cultured in RPMI medium supplemented with 10% fetal bovine serum and 1% penicillin and 1% streptomycin in 96 well culture plates at 37° C. to a density of 8000 cells/90 μl/well and the cells were harvested. A series of 3-fold serial dilutions of each test compound of Formula (I) were prepared in RPMI medium and added to the cells at final concentrations ranging from […] to 0.15 nM. The plates were incubated at 37° C. for 96 hours.
After incubation, the cells were pelleted by centrifugation in a pre-cooled 4° C. rotor at 1,100 rpm for 10 min and the supernatant was removed by aspiration. The cell pellet was resuspended in 55 μl of Lysis Buffer (0.4M HCl) and incubated on ice with periodic shaking for 30 minutes. The lysed cells were subjected to centrifugation at 4,200 rpm for 10 min at 4° C. and the supernatant containing acid-soluble proteins was collected and the remainder discarded. The acid-soluble proteins were brought to a neutral pH by the addition of 20 μl of Neutralization Buffer (1 M Sodium phosphate, dibasic (pH 12.5), 2.5 mM DTT and 1 mM PMSF) and the neutralized lysates were analyzed by ELISA.
A 65 μl aliquot of each cell lysate was added to a well of a microwell strip, the microwells were sealed using tape and incubated either at 37° C. for two hours or at 4° C. overnight. After incubation, the tape was removed at the microwells were washed four times using 200 μl of 1× Wash Buffer. To each washed microwell, a 100 μl aliquot of an anti-trimethyl histone H3 Lys27 Detection Antibody solution was added and the microwells were incubated at 37° C. for one hour. The Detection Antibody solution was removed by aspiration and the wells were washed four times each using 200 μl of 1× Wash Buffer.
A 100 μl aliquot of an HRP-linked secondary antibody was added to each well, the wells were sealed with tape and incubated at 37° C. for 30 min. The HRP-linked secondary antibody solution was removed by aspiration and the wells were washed four times using 200 μl of 1× Wash Buffer. A 100 μl aliquot of a TMB substrate was added to each well, the wells were sealed with tape and incubated at 37° C. for 10 min or 25° C. for 30 min. The reaction was stopped by the addition of 100 μl aliquot of a STOP solution and the plate was shaken briefly. The degree of histone H3 trimethylation was determined using a spectrophotometric readout by measuring the absorbance at 450 nm and then calculating the amount of trimethylated histone H3. A=≤100 nM; B=>100 nM−≤500 nM; C=>500 nM and N.D.=not determined.
A general note: An ELISA detects its analyte on a solid surface through an enzyme-linked reagent.

purified human, His-tagged PRC2 complex, sequence (Q15910 whole entry): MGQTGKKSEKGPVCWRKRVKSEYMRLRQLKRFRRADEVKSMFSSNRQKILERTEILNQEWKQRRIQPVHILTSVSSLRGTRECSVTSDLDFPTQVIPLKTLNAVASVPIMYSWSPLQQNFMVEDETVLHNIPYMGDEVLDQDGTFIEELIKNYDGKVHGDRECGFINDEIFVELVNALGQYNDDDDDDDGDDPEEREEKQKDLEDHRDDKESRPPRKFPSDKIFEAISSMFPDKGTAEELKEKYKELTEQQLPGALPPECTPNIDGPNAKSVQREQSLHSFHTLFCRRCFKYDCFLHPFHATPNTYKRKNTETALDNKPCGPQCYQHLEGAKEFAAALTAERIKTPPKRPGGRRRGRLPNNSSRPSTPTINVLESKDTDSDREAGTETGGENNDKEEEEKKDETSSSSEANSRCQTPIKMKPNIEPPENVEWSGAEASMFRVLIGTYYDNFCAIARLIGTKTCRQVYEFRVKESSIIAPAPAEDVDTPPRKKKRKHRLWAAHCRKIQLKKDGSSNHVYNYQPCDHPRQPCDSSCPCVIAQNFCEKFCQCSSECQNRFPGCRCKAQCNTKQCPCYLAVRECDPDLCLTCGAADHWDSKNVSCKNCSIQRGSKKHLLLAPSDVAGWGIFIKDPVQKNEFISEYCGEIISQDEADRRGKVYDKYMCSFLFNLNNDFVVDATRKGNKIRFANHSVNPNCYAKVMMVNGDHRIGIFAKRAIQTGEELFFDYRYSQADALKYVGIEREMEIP
purified human, His-tagged PRC2 complex, sequence (O75530 whole entry): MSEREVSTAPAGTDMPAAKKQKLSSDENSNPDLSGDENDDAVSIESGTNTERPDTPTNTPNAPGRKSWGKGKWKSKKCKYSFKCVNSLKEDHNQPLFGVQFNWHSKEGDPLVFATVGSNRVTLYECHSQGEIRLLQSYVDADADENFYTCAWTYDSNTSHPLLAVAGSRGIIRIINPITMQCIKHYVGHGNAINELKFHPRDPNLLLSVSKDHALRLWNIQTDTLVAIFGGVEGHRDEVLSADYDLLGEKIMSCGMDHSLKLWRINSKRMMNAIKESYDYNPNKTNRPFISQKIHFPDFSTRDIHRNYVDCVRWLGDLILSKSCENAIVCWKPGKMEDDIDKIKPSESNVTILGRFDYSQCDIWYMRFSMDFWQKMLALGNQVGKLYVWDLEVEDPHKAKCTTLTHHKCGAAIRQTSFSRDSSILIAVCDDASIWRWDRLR
purified human, His-tagged PRC2 complex, sequence (Q15022 whole entry partner): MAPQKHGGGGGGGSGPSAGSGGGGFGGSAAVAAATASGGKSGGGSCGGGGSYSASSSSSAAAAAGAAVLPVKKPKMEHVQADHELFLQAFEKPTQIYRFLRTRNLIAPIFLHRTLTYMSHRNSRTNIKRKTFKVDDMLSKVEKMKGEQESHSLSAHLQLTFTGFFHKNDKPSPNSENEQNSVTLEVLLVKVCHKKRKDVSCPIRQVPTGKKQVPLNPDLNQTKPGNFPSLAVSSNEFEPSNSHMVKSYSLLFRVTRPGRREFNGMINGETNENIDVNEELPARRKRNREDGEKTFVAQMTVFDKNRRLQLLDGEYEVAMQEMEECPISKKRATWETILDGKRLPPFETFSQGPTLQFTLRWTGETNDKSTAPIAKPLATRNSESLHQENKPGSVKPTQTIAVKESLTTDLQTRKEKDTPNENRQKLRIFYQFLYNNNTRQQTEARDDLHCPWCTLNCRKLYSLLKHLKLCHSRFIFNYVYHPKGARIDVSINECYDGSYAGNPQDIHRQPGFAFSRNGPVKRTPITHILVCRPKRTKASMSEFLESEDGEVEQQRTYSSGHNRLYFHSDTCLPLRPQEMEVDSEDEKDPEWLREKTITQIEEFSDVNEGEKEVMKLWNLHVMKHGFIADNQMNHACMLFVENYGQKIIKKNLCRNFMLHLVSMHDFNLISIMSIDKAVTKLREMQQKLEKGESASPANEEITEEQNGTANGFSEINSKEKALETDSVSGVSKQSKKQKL
purified human, His-tagged PRC2 complex, sequence (Q6ZN18 whole entry partner): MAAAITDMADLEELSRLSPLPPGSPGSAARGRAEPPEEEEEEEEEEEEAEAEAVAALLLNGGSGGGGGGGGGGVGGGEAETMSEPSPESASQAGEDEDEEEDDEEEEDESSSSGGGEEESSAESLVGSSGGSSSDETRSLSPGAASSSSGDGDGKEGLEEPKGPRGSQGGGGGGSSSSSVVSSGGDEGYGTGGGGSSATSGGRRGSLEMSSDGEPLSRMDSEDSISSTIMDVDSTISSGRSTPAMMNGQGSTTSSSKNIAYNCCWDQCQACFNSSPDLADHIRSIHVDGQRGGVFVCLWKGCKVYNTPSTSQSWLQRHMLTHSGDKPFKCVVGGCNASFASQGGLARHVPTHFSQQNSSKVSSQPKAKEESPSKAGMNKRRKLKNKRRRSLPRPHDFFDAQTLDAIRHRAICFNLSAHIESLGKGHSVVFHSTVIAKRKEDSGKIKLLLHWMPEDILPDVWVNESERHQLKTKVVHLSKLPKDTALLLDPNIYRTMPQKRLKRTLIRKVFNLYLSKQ
purified human, His-tagged PRC2 complex, sequence (Q09028 whole entry partner): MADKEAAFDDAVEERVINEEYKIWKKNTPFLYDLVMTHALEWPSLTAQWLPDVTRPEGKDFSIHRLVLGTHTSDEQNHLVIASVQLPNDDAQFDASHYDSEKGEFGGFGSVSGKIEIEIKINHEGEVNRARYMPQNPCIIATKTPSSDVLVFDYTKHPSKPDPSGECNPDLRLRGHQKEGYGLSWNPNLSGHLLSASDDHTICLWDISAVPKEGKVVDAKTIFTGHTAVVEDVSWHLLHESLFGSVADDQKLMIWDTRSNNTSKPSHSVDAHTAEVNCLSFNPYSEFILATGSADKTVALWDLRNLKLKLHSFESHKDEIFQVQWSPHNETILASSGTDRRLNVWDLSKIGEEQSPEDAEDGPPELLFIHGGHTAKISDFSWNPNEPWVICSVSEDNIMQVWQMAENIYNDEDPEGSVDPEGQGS

With `CN(C)CCn1nccc1-c1cnc(NCc2c(F)ccc3c2CCO3)c2cnncc12` [Example 18, 8-(1-(2-(dimethylamino)ethyl)-1H-pyrazol-5-yl)-N-((5-fluoro-2,3-dihydrobenzofuran-4-yl)methyl)pyrido[3,4-d]pyridazin-5-amine], the values for the IC50 in assay [1], in assay [2] and in assay [3] were more than 250 nM, not above 250 nM and 100 to 500 nM, respectively.

In the case of `CNCc1ccc(-c2cnc(NCc3c(F)ccc4c3CCO4)c3cnncc23)c(C)c1` [Example 19, N-((5-fluoro-2,3-dihydrobenzofuran-4-yl)methyl)-8-(2-methyl-4-((methylamino)methyl)phenyl)pyrido[3,4-d]pyridazin-5-amine], the IC50 in assay [1] was less than 100 nM; in assay [2], not above 250 nM; in assay [3], not above 100 nM.

For `CCNCc1ccc(-c2cnc(NCc3c(F)ccc4c3CCO4)c3cnncc23)c(C)c1` [Example 20, 8-(4-((ethylamino)methyl)-2-methylphenyl)-N-((5-fluoro-2,3-dihydrobenzofuran-4-yl)methyl)pyrido[3,4-d]pyridazin-5-amine], the IC50 in assay [1] is less than 100 nM; in assay [2], not above 250 nM; in assay [3], not above 100 nM.

On to `CNCc1ccc(-c2cnc(NCc3c(F)ccc4c3CCO4)c3cnncc23)cc1` [Example 21, N-((5-fluoro-2,3-dihydrobenzofuran-4-yl)methyl)-8-(4-((methylamino)methyl)phenyl)pyrido[3,4-d]pyridazin-5-amine], for which the IC50 in assay [1] is 100 to 250 nM; in assay [2], not above 250 nM; in assay [3], 100 to 500 nM.

Consider `Cc1cc(-c2cnc(NCc3c(F)ccc4c3CCO4)c3cncnc23)n(C)n1` [Example 22, 8-(1,3-dimethyl-1H-pyrazol-5-yl)-N-((5-fluoro-2,3-dihydrobenzofuran-4-yl)methyl)pyrido[4,3-d]pyrimidin-5-amine], for which the IC50 in assay [1] is less than 100 nM; in assay [2] it was not above 250 nM; in assay [3] it was not above 100 nM.

As for `CN(C)Cc1ccc(-c2cnc(NCc3c(F)ccc4c3CCO4)c3cncnc23)cc1` [Example 23], the IC50 is less than 100 nM in assay [1], not above 250 nM in assay [2] and 100 to 500 nM in assay [3].

With `Cc1cc(CN(C)C)ccc1-c1cnc(NCc2c(F)ccc3c2CCO3)c2cncnc12` [Example 24], the IC50 in assay [1] is less than 100 nM; in assay [2], not above 250 nM; in assay [3], not above 100 nM.

As to `CN(C)Cc1ccc(-c2cnc(NCc3cccc4c3CCO4)c3cncnc23)cc1` [Example 25], the figures for the IC50 in assay [1], in assay [2] and in assay [3] were more than 250 nM, not above 250 nM and 100 to 500 nM, respectively.

As for `CNCc1ccc(-c2cnc(NCc3c(F)ccc4c3CCO4)c3cncnc23)c(C)c1` [Example 26, N-((5-fluoro-2,3-dihydrobenzofuran-4-yl)methyl)-8-(2-methyl-4-((methylamino)methyl)phenyl)pyrido[4,3-d]pyrimidin-5-amine], the figures for the IC50 in assay [1], in assay [2] and in assay [3] were less than 100 nM, not above 250 nM and not above 100 nM, respectively.

`CSc1ncc2c(NCc3c(F)ccc4c3CCO4)ncc(-c3cc(C)nn3C)c2n1` [Example 27, 8-(1,3-dimethyl-1H-pyrazol-5-yl)-N-((5-fluoro-2,3-dihydrobenzofuran-4-yl)methyl)-2-(methylthio)pyrido[4,3-d]pyrimidin-5-amine]: the IC50 in assay [1] is less than 100 nM; in assay [2], not above 250 nM; in assay [3] it was 100 to 500 nM.

Turning to `COc1ncc2c(NCc3c(F)ccc4c3CCO4)ncc(-c3cc(C)nn3C)c2n1` [Example 28, 8-(1,3-dimethyl-1H-pyrazol-5-yl)-N-((5-fluoro-2,3-dihydrobenzofuran-4-yl)methyl)-2-methoxypyrido[4,3-d]pyrimidin-5-amine], the figures for the IC50 in assay [1], in assay [2] and in assay [3] were less than 100 nM, not above 250 nM and 100 to 500 nM, respectively.

With `Cc1cc(-c2cnc(NCc3c(F)ccc4c3CCO4)c3cnccc23)n(C)n1` [Example 29, 4-(1,3-dimethyl-1H-pyrazol-5-yl)-N-((5-fluoro-2,3-dihydrobenzofuran-4-yl)methyl)-2,7-naphthyridin-1-amine], the IC50 in assay [1] was less than 100 nM; in assay [2] it was 250 to 500 nM; in assay [3] it was 100 to 500 nM.

Regarding `Cc1cc(CN(C)C)ccc1-c1cnc(NCc2c(F)ccc3c2CCO3)c2cnccc12` [Example 30], the figures for the IC50 in assay [1], in assay [2] and in assay [3] were more than 250 nM, more than 500 nM and more than 500 nM, respectively.

Regarding `Cc1cc(S(C)(=O)=O)ccc1-c1cnc(NCc2c(F)ccc3c2CCO3)c2cnccc12` [Example 31], the IC50 in assay [1] was 100 to 250 nM; in assay [2], more than 500 nM; in assay [3], more than 500 nM.
